Test results from US9199963B2, “Heterocyclic compound” (Takeda Pharmaceutical Company Limited, priority 2013, dated 2015).

Experiments:
[1] = target: T1, human MCH receptor 1 (MCHR1) (Homo sapiens, UniProt Q99705); test: Human MCH receptor 1 (MCHR1) competitive inhibitory activity using binding assay; conditions: test compound 0.1 μM; [125I]-MCH (4-19); human MCHR1-expressing CHO cellular membrane fraction; read-out: Binding inhibition rate % (0.1 μM)
T1 construct: expressed in transfected cells; host or cells: CHO cell clone 57 (described in WO01/82925); membrane fraction
T1 sequence (Q99705 whole entry): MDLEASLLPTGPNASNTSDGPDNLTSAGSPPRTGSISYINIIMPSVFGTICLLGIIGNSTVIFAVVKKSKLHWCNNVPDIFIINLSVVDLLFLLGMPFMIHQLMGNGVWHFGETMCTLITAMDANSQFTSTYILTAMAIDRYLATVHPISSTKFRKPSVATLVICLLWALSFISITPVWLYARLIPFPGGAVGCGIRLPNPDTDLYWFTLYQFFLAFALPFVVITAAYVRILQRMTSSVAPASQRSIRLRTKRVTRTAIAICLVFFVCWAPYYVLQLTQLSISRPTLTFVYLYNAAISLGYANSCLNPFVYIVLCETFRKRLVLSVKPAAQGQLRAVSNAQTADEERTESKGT
Protocol: Determination of Human MCH Receptor 1 (MCHR1) Competitive Inhibitory Activity of Test Compound Using Binding Assay
1. Preparation of Membrane Fraction
In phosphate buffered saline (pH 7.4) supplemented with 5 mM EDTA (ethylenediaminetetraacetic acid) were respectively suspended human MCHR1-expressing CHO cells (1×10^8 cells) and centrifuged. Homogenate buffer (10 mL, 10 mM NaHCO3, 5 mM EDTA, pH 7.5, 0.5 mM PMSF (phenylmethylsulfonyl fluoride), 20 mg/L leupeptin, 4 mg/L E-64, 1 mg/L pepstatin A) was added to the pellets of the cells and, using Polytron Homogenizer, the mixture was homogenated. The supernatant obtained after centrifugation at 400×g for 10 min was further centrifuged at 100,000×g for 1 hr to give precipitate of the membrane fraction. The precipitate was suspended in 2 mL of assay buffer [20 mM Tris-HCl (pH 7.5), 5 mM EDTA, 0.5 mM PMSF, 20 mg/L leupeptin, 4 mg/L E-64, 1 mg/L pepstatin A]. The membrane fractions were suspended in assay buffer to a protein concentration of 2 mg/mL, and after dispensing, preserved at −80° C. and used upon thawing each time when in use.
The MCHR1 ligand binding inhibitory activity of the test compound was determined as follows.
The mixture was reacted with stirring at room temperature for 1 hr, and the plate was set on FilterMate Harvester (PerkinElmer). […] The glass filter plate was dried, MicroScint 0 (PerkinElmer) was added at 25 μL/well, and the resulting radioactivity was measured by TopCount liquid scintillation counter (PerkinElmer). The binding inhibition rate of the test compound was calculated by the following formula. Binding inhibition(%)=100−(radioactivity upon addition of test compound and hot MCH−radioactivity upon addition of cold MCH and hot MCH solution)/(radioactivity upon addition of DMSO solution and hot MCH−radioactivity upon addition of cold MCH and hot MCH solution)×100

human MCHR1 = target: T2, human MCHR1 (Homo sapiens, UniProt Q99705); test: MCH receptor 1 antagonistic activity using Ca2+ mobilization assay; format: cell-based; conditions: test compound 0.1 μM; ligand MCH (4-19) 2 nM; human MCHR1-expressing CHO cells (clone #4); read-out: Inhibition rate % (0.1 μM)
T2 construct: expressed in transfected cells; host or cells: CHO dhfr- cells, clone #4
T2 sequence (Q99705 whole entry): as above
Protocol: Measurement of MCH Receptor 1 Antagonistic Activity of Test Compound Using Ca^2+ Mobilization Assay
Using an expression vector plasmid introduced with human MCHR1 gene for expression in animal cells, human MCHR1 gene was introduced into CHO cells (CHO dhfr^−) by Lipofectamine LTX (Invitrogen). The cells were cultured in selection MEMα medium [445 mL of MEMα medium without nucleic acid and added with 5 mL of Penicillin-Streptomycin (Invitrogen) and 50 mL of dialyzed fetal bovine serum]. Colony 24 clones grown in the selection medium, which were human MCHR1 gene-expressing CHO cell candidates, were selected. […] An integrated dispensing function fluorometer (CellLux, PerkinElmer) was used for Ca^2+ mobilization assay. […] The medium was removed, and the cells were washed with phosphate buffered saline (PBS). A Ca^2+ indicator dye reagent (DOJINDO LABORATORIES, Ca screening no-wash kit Fluo4) was added at 100 μL/well, and the dye was allowed to penetrate into the cells for 30 min in an incubator at 5% CO2, 37° C. The plate was set on a plate reader. First, a test compound solution diluted with an assay buffer [10 mM HEPES (pH 7.4), 1× assay buffer containing 0.1% BSA (DOJINDO LABORATORIES, attached to Ca screening no-wash kit Fluo4)] or DMSO solution was added at 50 μL/well, and then ligand MCH (4-19) peptide (final concentration 2 nM) diluted with assay buffer or DMSO was added at 50 μL/well, during which changes in intracellular fluorescence were measured at 2 second intervals.

[2] = test system: male diet-induced obese F344/Jcl rats; test: Anorectic effect using male diet-induced obese F344/Jcl rats; format: in vivo, rat; conditions: oral, 5 mg/mL suspension in 0.5% methylcellulose at 2 mL/kg, two administrations; food intake for 2 days vs control group
Protocol: Evaluation of Anorectic Effect Using Male Diet-Induced Obese F344/Jcl Rats
Male diet-induced obese F344/Jcl rats (41-52 weeks old) fed with a high-fat diet (D12451: Research Diets) from 5 weeks old were used. From before the start of experiment, the rats were singly housed, given a powder high-fat diet (D12451M: Research Diets), and habituated to oral administration with tap water. The food intake from the evening of the day before the start of experiment to the next morning was measured, and the rats were grouped based on both the food intake and the body weight of the previous day. In the evening of the day of the start of experiment and the next day, 0.5% methylcellulose solution was orally administered to the control group, and 0.5% methylcellulose suspension of the test compound (5 mg/mL) was orally administered to the compound administration group at 2 mL/kg (6 per group for both control group and compound administration group). The food intake for 2 days from the initial administration was measured. The food intake inhibition rate of each compound administration group to the control group was calculated.

hERG = hERG (Homo sapiens, UniProt Q12809); test: hERG activity measurement by IonWorks Quattro; format: cell-based; conditions: 5 minutes exposure, hERG stably expressed in CHO cells (CYL3038)
Chain of hERG (Q12809 whole entry): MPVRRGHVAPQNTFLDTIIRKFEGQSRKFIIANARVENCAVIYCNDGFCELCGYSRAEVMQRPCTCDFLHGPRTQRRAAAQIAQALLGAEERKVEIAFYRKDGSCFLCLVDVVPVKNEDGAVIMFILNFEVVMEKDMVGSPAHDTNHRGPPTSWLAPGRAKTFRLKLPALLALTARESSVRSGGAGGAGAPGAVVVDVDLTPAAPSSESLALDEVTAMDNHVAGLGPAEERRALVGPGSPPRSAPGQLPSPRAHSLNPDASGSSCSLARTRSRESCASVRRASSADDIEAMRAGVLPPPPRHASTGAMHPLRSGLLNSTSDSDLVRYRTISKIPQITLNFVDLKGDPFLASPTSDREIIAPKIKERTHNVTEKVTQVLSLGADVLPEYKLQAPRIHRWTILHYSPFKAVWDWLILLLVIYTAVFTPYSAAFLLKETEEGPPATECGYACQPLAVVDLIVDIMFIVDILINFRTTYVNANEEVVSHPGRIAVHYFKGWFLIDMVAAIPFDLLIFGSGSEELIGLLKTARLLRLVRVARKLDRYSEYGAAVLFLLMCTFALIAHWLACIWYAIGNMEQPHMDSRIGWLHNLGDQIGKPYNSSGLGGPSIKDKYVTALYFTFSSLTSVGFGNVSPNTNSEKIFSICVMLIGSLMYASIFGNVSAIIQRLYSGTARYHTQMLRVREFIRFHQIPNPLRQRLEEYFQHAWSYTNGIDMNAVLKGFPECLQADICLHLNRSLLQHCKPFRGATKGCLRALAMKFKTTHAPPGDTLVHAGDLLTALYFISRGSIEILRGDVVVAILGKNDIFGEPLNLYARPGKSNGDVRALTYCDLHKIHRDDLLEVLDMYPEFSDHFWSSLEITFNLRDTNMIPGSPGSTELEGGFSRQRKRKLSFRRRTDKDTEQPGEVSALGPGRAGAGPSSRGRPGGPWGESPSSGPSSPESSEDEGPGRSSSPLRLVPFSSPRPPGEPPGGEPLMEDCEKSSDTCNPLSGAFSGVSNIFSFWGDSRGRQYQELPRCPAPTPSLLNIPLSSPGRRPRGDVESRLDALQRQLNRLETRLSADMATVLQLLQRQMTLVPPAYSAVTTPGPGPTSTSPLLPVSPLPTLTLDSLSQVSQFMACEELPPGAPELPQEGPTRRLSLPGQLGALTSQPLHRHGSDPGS
Protocol: A cell strain CYL3038 having hERG stably expressed in CHO cells was purchased from Millipore LIMITED. A subculture of CYL3038 was prepared using Ham's F-12 medium containing 10% FBS and 500 μg/mL Geneticin, under the presence of 5% CO2 at 32° C. hERG current inhibition was measured by PPC mode of IonWorks Quattro (Molecular Devices, Inc.). As an extracellular fluid, PBS (+) was used. As an intracellular fluid, 20 mM HEPES buffer (pH 7.3) containing 140 mM KCl, 2 mM MgCl2 and 1 mM EGTA was used, and the cell was perforated by amphotericin. As the voltage protocol, holding potential was set to −80 mV, prepulsevoltage was set to 40 mV (2 seconds) and test pulsevoltage was set to −50 mV (2 seconds). Current values before and after addition of compound are respectively recorded as pre-compound hERG current and post-compound hERG current.

SMILES	inhibition at 0.1 µM [1] [%]	inhibition at 0.1 µM (human MCHR1) [%]	Food intake suppression rate (%) [2] [%]	% hERG inhibition (10 μM) (hERG) [%]
Cc1c2cc(-n3ccc(OCc4csc(C(F)(F)F)c4)cc3=O)ccc2nn1C1CC1 [Example 44, 1-(2-cyclopropyl-3-methyl-2H-indazol-5-yl)-4-{[5-(trifluoromethyl)thiophen-3-yl]methoxy}pyridin-2(1H)-one]	77	55	30.6	
Cc1c2cc(-n3ccc(OCc4csc(C(F)(F)F)c4)cc3=O)ccc2nn1C [Example 22, 1-(2,3-dimethyl-2H-indazol-5-yl)-4-{[5-(trifluoromethyl)thiophen-3-yl]methoxy}pyridin-2(1H)-one]	51	69	50.7	
Cc1c2cc(-n3ccc(OCc4csc(C(F)(F)F)n4)cc3=O)ccc2nn1C1CC1 [Example 46, 1-(2-cyclopropyl-3-methyl-2H-indazol-5-yl)-4-{[2-(trifluoromethyl)-1,3-thiazol-4-yl]methoxy}pyridin-2(1H)-one]	50	78	13.3	
Cc1c2cc(-n3ccc(OCc4ccc(F)cc4)cc3=O)ccc2nn1C1CC1 [Example 6, 1-(2-cyclopropyl-3-methyl-2H-indazol-5-yl)-4-[(4-fluorobenzyl)oxy]pyridin-2(1H)-one]	72	70	26.4	
Cc1c2cc(-n3ccc(OCc4ccc(Cl)cc4)cc3=O)ccc2nn1C [Example 1, 4-[(4-chlorobenzyl)oxy]-1-(2,3-dimethyl-2H-indazol-5-yl)pyridin-2(1H)-one]	72	83	32.1	22.1
Cc1c2cc(-n3ccc(OCc4ccc(Br)cc4)cc3=O)ccc2nn1C [Example 25, 4-[(4-bromobenzyl)oxy]-1-(2,3-dimethyl-2H-indazol-5-yl)pyridin-2(1H)-one]	57	84	59.8	
